# Experimental data as given in patent publication EP4635500A1, “THERAPEUTIC AGENT FOR BACTERIAL INFECTION” (Sumitomo Pharma Co., Ltd., priority 2022, dated 2024).
# Values joined by “and” are separate entries in the source; they are usually repeats but may differ in a detail not shown here. Identical values can stand only once. Like-named read-outs stand apart in the source and are kept apart here.
# Experiments:
# Klebsiella pneumoniae = experiment: MIC, broth microdilution, standard strains and Japanese clinical isolates (Example 5, Table 4); type: cell-based
# A. baumannii = experiment: MIC, broth microdilution, CDC/FDA Antibiotic Resistance Isolate Bank (Example 7, Tables 9, 13, 14); type: cell-based, Acinetobacter baumannii; conditions: for MIC: read-out: MIC
# Enterobacterales = experiment: MIC, broth microdilution, CDC/FDA Antibiotic Resistance Isolate Bank (Example 7, Tables 8, 11, 12); type: cell-based
smiles,measurement,setting,value
"C[C@@H](O)[C@H]1C(=O)N2C(C(=O)O)=C(S[C@@H]3CN[C@H](C(=O)N(C)C)C3)[C@H](C)[C@H]12 [MEPM, meropenem]",MIC,"Klebsiella pneumoniae; ATCCBAA1705, KUB3152 Klebsiella pneumoniae ATCC BAA-1705, KPC-2",4 µg/mL
same,MIC,"Klebsiella pneumoniae; ATCCBAA1898, KUB3996 Klebsiella pneumoniae ATCC BAA-1898, KPC-2",32 µg/mL
same,MIC,"Klebsiella pneumoniae; ATCCBAA1899, KUB3997 Klebsiella pneumoniae ATCC BAA-1899, KPC-2",8 µg/mL
same,MIC,"Klebsiella pneumoniae; ATCCBAA1900, KUB3998 Klebsiella pneumoniae ATCC BAA-1900, KPC-3",8 µg/mL
same,MIC,"Klebsiella pneumoniae; ATCCBAA1902, KUB3153 Klebsiella pneumoniae ATCC BAA-1902, KPC-3",64 µg/mL
same,MIC,"Klebsiella pneumoniae; ATCCBAA1903, KUB3154 Klebsiella pneumoniae ATCC BAA-1903, KPC-2",4 µg/mL
same,MIC,"Klebsiella pneumoniae; ATCCBAA1904, KUB3999 Klebsiella pneumoniae ATCC BAA-1904, KPC-3",2 µg/mL
same,MIC,"Klebsiella pneumoniae; ATCCBAA1905, KUB3155 Klebsiella pneumoniae ATCC BAA-1905, KPC-2",8 µg/mL
same,MIC,"Klebsiella pneumoniae; ATCCBAA2078, KUB4000 Klebsiella pneumoniae ATCC BAA-2078, KPC-3",4 µg/mL
same,MIC,"Klebsiella pneumoniae; ATCCBAA2146, KUB4011 Klebsiella pneumoniae ATCC BAA-2146, NDM-1",64 µg/mL
same,MIC,"Klebsiella pneumoniae; ATCCBAA2342, KUB4003 Klebsiella pneumoniae ATCC BAA-2342, KPC-3",4 µg/mL
same,MIC,"Klebsiella pneumoniae; ATCCBAA2343, KUB4004 Klebsiella pneumoniae ATCC BAA-2343, KPC-3",16 µg/mL
same,MIC,"Klebsiella pneumoniae; ATCCBAA2344, KUB3156 Klebsiella pneumoniae ATCC BAA-2344, KPC-2",4 µg/mL
same,MIC,"Klebsiella pneumoniae; ATCCBAA2470, KUB3157 Klebsiella pneumoniae subsp. pneumoniae ATCC BAA-2470, NDM-1",16 µg/mL
same,MIC,"Klebsiella pneumoniae; ATCCBAA2473, KUB4009 Klebsiella pneumoniae ATCC BAA-2473, NDM-1",64 µg/mL
same,MIC,"Klebsiella pneumoniae; ATCCBAA2524, KUB3158 Klebsiella pneumoniae subsp. pneumoniae ATCC BAA-2524, OXA-48",0.25 µg/mL
same,MIC,"Klebsiella pneumoniae; KUB3163 Klebsiella pneumoniae Clinical isolate, IMP-1",0.5 µg/mL
same,MIC,"Klebsiella pneumoniae; KUB3164 Klebsiella pneumoniae Clinical isolate, IMP-6",2 µg/mL
same,MIC,"Klebsiella pneumoniae; KUB3166 Klebsiella pneumoniae Clinical isolate, IMP-1",0.5 µg/mL
same,MIC,"Klebsiella pneumoniae; KUB3606 Klebsiella pneumoniae Clinical isolate, KPC-38",256 µg/mL
same,MIC,"Klebsiella pneumoniae; KUB3607 Klebsiella pneumoniae Clinical isolate, IMP-1",0.5 µg/mL
same,MIC,"Klebsiella pneumoniae; KUB3628 Klebsiella pneumoniae Clinical isolate, IMP-1",8 µg/mL
same,MIC,"Klebsiella pneumoniae; KUB3630 Klebsiella pneumoniae Clinical isolate, IMP-1",1 µg/mL
same,MIC,"Klebsiella pneumoniae; KUB3631 Klebsiella pneumoniae Clinical isolate, IMP-1",4 µg/mL
same,MIC,"Klebsiella pneumoniae; KUB3633 Klebsiella pneumoniae Clinical isolate, IMP-6",1 µg/mL
same,MIC,"Klebsiella pneumoniae; KUB3634 Klebsiella pneumoniae Clinical isolate, IMP-6",1 µg/mL
same,MIC,"Klebsiella pneumoniae; KUB3635 Klebsiella pneumoniae Clinical isolate, IMP-1",32 µg/mL
same,MIC,"Klebsiella pneumoniae; NCTC13439, KUB3159 Klebsiella pneumoniae NCTC13439, VIM-1",0.5 µg/mL
same,MIC,"Klebsiella pneumoniae; NCTC13440, KUB3160 Klebsiella pneumoniae NCTC13440, VIM-1",0.5 µg/mL
same,MIC50,A. baumannii; 55 isolates of A. baumannii,32 µg/mL
same,MIC,"A. baumannii; Acinetobacter baumannii, A. baumannii KUB No. 5567, AR Bank #70, OXA-58, OXA-100",8 µg/mL
same,MIC,"A. baumannii; Acinetobacter baumannii, A. baumannii KUB No. 5575, AR Bank #78, OXA-71",32 µg/mL
same,MIC,"A. baumannii; Acinetobacter baumannii, A. baumannii KUB No. 5706, AR Bank #273, OXA-23, OXA-66",32 µg/mL
same,MIC,"A. baumannii; Acinetobacter baumannii, A. baumannii KUB No. 5708, AR Bank #275, OXA-23, OXA-66",32 µg/mL
same,MIC,"A. baumannii; Acinetobacter baumannii, A. baumannii KUB No. 5709, AR Bank #276, no carbapenemase genes (-)",4 µg/mL
same,MIC,"A. baumannii; Acinetobacter baumannii, A. baumannii KUB No. 5711, AR Bank #278, OXA-23, OXA-66",32 µg/mL
same,MIC,"A. baumannii; Acinetobacter baumannii, A. baumannii KUB No. 5712, AR Bank #279, OXA-23, OXA-66",32 µg/mL
same,MIC,"A. baumannii; Acinetobacter baumannii, A. baumannii KUB No. 5714, AR Bank #281, OXA-82",8 µg/mL
same,MIC,"A. baumannii; Acinetobacter baumannii, A. baumannii KUB No. 5715, AR Bank #282, OXA-23, OXA-66",32 µg/mL
same,MIC,"A. baumannii; Acinetobacter baumannii, A. baumannii KUB No. 5716, AR Bank #283, OXA-23, OXA-66",32 µg/mL
same,MIC,"A. baumannii; Acinetobacter baumannii, A. baumannii KUB No. 5721, AR Bank #288, OXA-23, OXA-66",16 µg/mL
same,MIC,"A. baumannii; Acinetobacter baumannii, A. baumannii KUB No. 5723, AR Bank #90, OXA-23, OXA-66",32 µg/mL
same,MIC,"A. baumannii; Acinetobacter baumannii, A. baumannii KUB No. 5724, AR Bank #291, OXA-23, OXA-66",32 µg/mL
same,MIC,"A. baumannii; Acinetobacter baumannii, A. baumannii KUB No. 5727, AR Bank #294, OXA-23, OXA-65",32 µg/mL
same,MIC,"A. baumannii; Acinetobacter baumannii, A. baumannii KUB No. 5728, AR Bank #295, OXA-23, OXA-66",32 µg/mL
same,MIC,"A. baumannii; Acinetobacter baumannii, A. baumannii KUB No. 5729, AR Bank #296, OXA-23, OXA-223",64 µg/mL
same,MIC,"A. baumannii; Acinetobacter baumannii, A. baumannii KUB No. 5730, AR Bank #297, OXA-23, OXA-66",16 µg/mL
same,MIC,"A. baumannii; Acinetobacter baumannii, A. baumannii KUB No. 5731, AR Bank #298, OXA-66, OXA-237",16 µg/mL
same,MIC,"A. baumannii; Acinetobacter baumannii, A. baumannii KUB No. 5732, AR Bank #299, OXA-23, OXA-203",32 µg/mL
same,MIC,"A. baumannii; Acinetobacter baumannii, A. baumannii KUB No. 5735, AR Bank #302, OXA-23, OXA-82",32 µg/mL
same,MIC,"A. baumannii; Acinetobacter baumannii, A. baumannii KUB No. 5736, AR Bank #303, OXA-23, OXA-66",16 µg/mL
same,MIC,"A. baumannii; Acinetobacter baumannii, A. baumannii KUB No. 5737, AR Bank #304, OXA-66, OXA-72",64 µg/mL
same,MIC,"A. baumannii; Acinetobacter baumannii, A. baumannii KUB No. 5740, AR Bank #307, OXA-66, OXA-237",8 µg/mL
same,MIC,"A. baumannii; Acinetobacter baumannii, A. baumannii KUB No. 5741, AR Bank #308, OXA-71",16 µg/mL
same,MIC,"A. baumannii; Acinetobacter baumannii, A. baumannii KUB No. 5742, AR Bank #309, OXA-23, OXA-82",32 µg/mL
same,MIC,"A. baumannii; Acinetobacter baumannii, A. baumannii KUB No. 5743, AR Bank #310, OXA-23, OXA-82",32 µg/mL
same,MIC,"A. baumannii; Acinetobacter baumannii, A. baumannii KUB No. 5744, AR Bank #311, OXA-23, OXA-82",32 µg/mL
same,MIC,"A. baumannii; Acinetobacter baumannii, A. baumannii KUB No. 5745, AR Bank #312, OXA-69",4 µg/mL
same,MIC,"A. baumannii; Acinetobacter baumannii, A. baumannii KUB No. 5746, AR Bank #313, OXA-23, OXA-69",16 µg/mL
same,MIC50,"A. baumannii; Acinetobacter baumannii, 55 strains of A. baumannii, read-out: MIC50",32 µg/mL
same,MIC90,Enterobacterales,32 µg/mL and >32 µg/mL
same,MIC,Enterobacterales; Citrobacter freundii,16 µg/mL
same,MIC,"Enterobacterales; Enterobacte (name cut at the end of the table), KUB No. 5629, AR Bank # 132, NMC (cut), read-out: MIC",2 µg/mL
same,MIC,"Enterobacterales; Enterobacter cloacae, Enterobacter cloacae complex, KUB No. 5661, AR Bank# 164, NMC-A, read-out: MIC",32 µg/mL
same,MIC,"Enterobacterales; Enterobacter cloacae, KUB No. 5529, AR Bank # 32, KPC-3, read-out: MIC",0.12 µg/mL
same,MIC,"Enterobacterales; Enterobacter cloacae, KUB No. 5535, AR Bank # 38, NDM-1, read-out: MIC",> 32 µg/mL
same,MIC,"Enterobacterales; Enterobacter cloacae, KUB No. 5547, AR Bank # 50, KPC-4, read-out: MIC",0.5 µg/mL
same,MIC,"Enterobacterales; Enterobacter cloacae, KUB No. 5550, AR Bank # 53, KPC-3, read-out: MIC",2 µg/mL
same,MIC,"Enterobacterales; Enterobacter cloacae, KUB No. 5557, AR Bank # 60, no carbapenemase gene, read-out: MIC",≤ 0.06 µg/mL
same,MIC,"Enterobacterales; Enterobacter cloacae, KUB No. 5562, AR Bank # 65, no carbapenemase gene, read-out: MIC",0.25 µg/mL
same,MIC,"Enterobacterales; Enterobacter cloacae, KUB No. 5569, AR Bank # 72, no carbapenemase gene, read-out: MIC",0.12 µg/mL
same,MIC,"Enterobacterales; Enterobacter cloacae, KUB No. 5570, AR Bank # 73, no carbapenemase gene, read-out: MIC",≤ 0.06 µg/mL
same,MIC,"Enterobacterales; Enterobacter cloacae, KUB No. 5590, AR Bank # 93, KPC-6, read-out: MIC",1 µg/mL
same,MIC,"Enterobacterales; Enterobacter cloacae, KUB No. 5633, AR Bank# 136, KPC-3, read-out: MIC",8 µg/mL
same,MIC,"Enterobacterales; Enterobacter cloacae, KUB No. 5651, AR Bank# 154, VIM-1, read-out: MIC",4 µg/mL
same,MIC,"Enterobacterales; Enterobacter cloacae, KUB No. 5660, AR Bank# 163, KPC-2, read-out: MIC",4 µg/mL
same,MIC,"Enterobacterales; Enterobacter cloacae, KUB No. 5761, AR Bank# 365, KPC-2, read-out: MIC",2 µg/mL
same,MIC,"Enterobacterales; Enterobacter cloacae, KUB No. 5762, AR Bank# 366, KPC-2, read-out: MIC",1 µg/mL
same,MIC,"Enterobacterales; Enterobacter cloacae, KUB No. 5763, AR Bank# 367, no carbapenemase genes, read-out: MIC",0.5 µg/mL
same,MIC,"Enterobacterales; Enterobacter cloacae, KUB No. 5778, AR Bank# 432, no carbapenemase genes, read-out: MIC",0.12 µg/mL
same,MIC,"Enterobacterales; Enterobacter cloacae, KUB No. 5792, AR Bank# 448, NDM-1, read-out: MIC",16 µg/mL
same,MIC,"Enterobacterales; Enterobacter cloacae, KUB No. 5807, AR Bank# 501, VIM-1, read-out: MIC",0.5 µg/mL
same,MIC,"Enterobacterales; Enterobacter cloacae, KUB No. 5808, AR Bank# 502, IMP-8, read-out: MIC",4 µg/mL
same,MIC,"Enterobacterales; Escherichia coli, KUB No. 5558, AR Bank # 61, KPC-3 (line continued in Table 8-2), read-out: MIC",1 µg/mL
same,MIC,"Enterobacterales; Escherichia coli, KUB No. 5611, AR Bank # 114, KPC-3, read-out: MIC",2 µg/mL
same,MIC,"Enterobacterales; Escherichia coli, KUB No. 5634, AR Bank# 137, NDM-6, read-out: MIC",32 µg/mL
same,MIC,"Enterobacterales; Escherichia coli, KUB No. 5646, AR Bank# 149, NDM-7, read-out: MIC",8 µg/mL
same,MIC,"Enterobacterales; Escherichia coli, KUB No. 5647, AR Bank# 150, NDM-5, read-out: MIC",> 32 µg/mL
same,MIC,"Enterobacterales; Escherichia coli, KUB No. 5648, AR Bank# 151, NDM-5, read-out: MIC",8 µg/mL
same,MIC,"Enterobacterales; Escherichia coli, KUB No. 5659, AR Bank# 162, NDM-7, read-out: MIC",32 µg/mL
same,MIC,"Enterobacterales; Escherichia coli, KUB No. 5764, AR Bank# 368, no carbapenemase genes, read-out: MIC",≤ 0.06 µg/mL
same,MIC,"Enterobacterales; Escherichia coli, KUB No. 5765, AR Bank# 369, no carbapenemase genes, read-out: MIC",≤ 0.06 µg/mL
same,MIC,"Enterobacterales; Escherichia coli, KUB No. 5766, AR Bank# 370, no carbapenemase genes, read-out: MIC",≤ 0.06 µg/mL
same,MIC,"Enterobacterales; Escherichia coli, KUB No. 5767, AR Bank# 371, no carbapenemase genes, read-out: MIC",≤ 0.06 µg/mL
same,MIC,"Enterobacterales; Escherichia coli, KUB No. 5768, AR Bank# 372, no carbapenemase genes, read-out: MIC",≤ 0.06 µg/mL
same,MIC,"Enterobacterales; Escherichia coli, KUB No. 5769, AR Bank# 373, no carbapenemase genes, read-out: MIC",≤ 0.06 µg/mL
same,MIC,"Enterobacterales; Escherichia coli, KUB No. 5770, AR Bank# 374, no carbapenemase genes, read-out: MIC",≤ 0.06 µg/mL
